Square brackets hold non-standard residues; d marks the D form. Ends that are not written are not given here. Peptide text beside a SMILES is read from it.
Tests used:
3T3-L1 Mouse Adipocytes = assay: Free fatty acid levels in cultured mouse adipocytes stimulated with isoproterenol; type: cell-based; conditions: peptide 10 μM, 20-22 hours then 3 hours with 1 nM isoproterenol; relative to isoproterenol treated cells
Protocol: The effect of the peptides on fatty acid metabolism can be assessed using an assay of free fatty acid levels in cultured cells such as mouse adipocytes. Peptides were initially prepared as 10 mM stock in DMSO and used at a final concentration of 10 μM (0.1% DMSO). […] Mouse 3T3-L1 cells purchased from ZenBio were seeded at 3,000 cells per well in 96-well plates in Pre-adipocyte Medium (Zen-Bio) and grown to confluence at 37° C. in a humidified atmosphere of 5% CO2/95% air. Two days after confluence, cells were placed in Adipocyte Differentiation Medium (Zen-Bio) and cultured for three additional days at 37° C. in a humidified atmosphere of 5% CO2/95% air. The culture media was then replaced with Adipocyte Maintenance Medium (Zen-Bio) and the cells maintained for an additional 9-12 days at 37° C. in a humidified atmosphere of 5% CO2/95% air with partial medium replacement every other day. Following 12-15 days of differentiation, test peptides were added at a final concentration of 10 μM in 0.1% DMSO and incubated for 20-22 hours in Adipocyte Maintenance Medium at 37° C. in a humidified atmosphere of 5% CO2/95% air. After 20-22 hours, 1 nM isoproterenol was added to all wells except untreated controls and test peptides were replenished. Insulin at 100 nM was added to control wells. Cells were incubated for 3 hours in Assay Buffer (Zen-Bio) at 37° C. in a humidified atmosphere of 5% CO2/95% air. Free fatty acid concentrations in the media were determined using a Free Fatty Acid Assay kit (Zen-Bio) according to the manufacturer's instructions using a Cytation 3 plate reader at 540 nm (BioTek, Winooski, VT). Absorbance values were corrected for untreated background and expressed relative to isoproterenol treated cells. Treatment with isoproterenol (1 nM) alone was used as the free fatty acid level stimulatory control. The relative standard deviation of the isoproterenol control was <10%. […] Free fatty acid levels for insulin (100 nM) treatment were <5% of the isoproterenol control value.

C2C12 Mouse Myoblasts = assay: Glucose utilization (glucose remaining in medium); type: cell-based; conditions: peptide 10 μM, 18-22 hours, relative to 0.1% DMSO treated control cells
Protocol: The effect of the peptides on glucose metabolism can be assessed using an assay of glucose utilization in cultured cells such as mouse myoblasts. Peptides were initially prepared as 10 mM stock in DMSO and used at a final concentration of 10 μM (0.1% DMSO). C2C12 mouse myoblast cell line was purchased from American Type Culture Collection (Manassas, VA). C2C12 cultures were maintained at 37° C. in a humidified atmosphere of 5% CO2/95% air with medium changes every second day. C2C12 cells were grown in DMEM (1 g/L glucose) supplemented with 10% FBS with 100 IU/ml penicillin and 100 μg/ml streptomycin. C2C12 cells were seeded at 7,000 cells per well on 96-well plates and cultured to confluence. Once the cell reached confluence the media was changed to DMEM (1 g/L glucose) supplemented with 2% HS with 100 IU/ml penicillin and 100 μg/ml streptomycin and maintained at 37° C. in a humidified atmosphere of 5% CO2/95% air. 5 days post-induction of differentiation fresh DMEM (1 g/L glucose) supplemented with 2% HS with 100 IU/ml penicillin and 100 μg/ml streptomycin was added to cultures. Cells were maintained at 37° C. in a humidified atmosphere of 5% CO2 and 95% air for 5 hours. After 5 hours test peptides at 10 μM or controls (0.5 mM or 1 mM metformin in 1% DMSO) prepared in fresh differentiation medium were added to cells and the cultures were maintained at 37° C. in a humidified atmosphere of 5% CO2/95% air for 18-22 hours. At the end of the incubation culture media was removed from the cells and the remaining glucose concentration was measured using a Glucose Assay kit (Abcam) according to the manufacturer's instructions, using a Cytation 3 plate reader at 570 nm (BioTek, Winooski, VT). Glucose concentrations in the medium were calculated relative to 0.1% DMSO treated control cells. The relative standard deviation of the result for the 0.1% DMSO treated control was <20%. Metformin was used as a positive control for reduction of glucose levels (increased glucose utilization glucose levels for treatment with metformin (1 mM) treatment were <20% of the 0.1% DMSO treated control value. The results are reported in Table 11.

Compound: CC[C@H](C)[C@H](NC(=O)[C@@H](NC(=O)[C@H](Cc1c[nH]cn1)NC(=O)[C@H](CCCNC(=N)N)NC(=O)[C@H](CC(=O)O)NC(=O)[C@H](Cc1ccc(O)cc1)NC(=O)[C@H](CC(C)C)NC(=O)[C@H](CC(C)C)NC(=O)[C@@H](NC(=O)[C@@H](N)Cc1c[nH]c2ccccc12)C(C)C)C(C)C)C(=O)NCC(=O)NCC(=O)N[C@@H](CO)C(=O)N[C@@H](CC(C)C)C(=O)N[C@@H](CS)C(=O)N[C@H](C(=O)N[C@@H](CCC(N)=O)C(=O)N[C@H](C(=O)N[C@@H](CCC(N)=O)C(=O)N[C@H](C(=O)N[C@@H](CCC(=O)O)C(=O)N[C@H](C)C(=O)O)C(C)C)C(C)C)C(C)C [compound 25] (H-WVLLYDRHVIGGSLCVQVQVE[dA]-OH; N-terminus and C-terminus assumed)
- Free Fatty Acid Levels, MEAN %ISO (3T3-L1 Mouse Adipocytes): 91.6%
- Glucose Utilization (glucose concentration in medium), Percent of Untreated Control (C2C12 Mouse Myoblasts): 107.2%

Compound: GWVLLYDRHVIGGSLCVVVQVEAY [compound 22]
- Free Fatty Acid Levels, MEAN %ISO (3T3-L1 Mouse Adipocytes): 84.7%
- Glucose Utilization (glucose concentration in medium), Percent of Untreated Control (C2C12 Mouse Myoblasts): 70.4%

Compound: MAGVIRGVLVL [compound 8]
- Free Fatty Acid Levels, MEAN %ISO (3T3-L1 Mouse Adipocytes): 76.9%
- Glucose Utilization (glucose concentration in medium), Percent of Untreated Control (C2C12 Mouse Myoblasts): 115.0%

Compound: MLLILTLVLL [compound 2]
- Free Fatty Acid Levels, MEAN %ISO (3T3-L1 Mouse Adipocytes): 80.7%
- Glucose Utilization (glucose concentration in medium), Percent of Untreated Control (C2C12 Mouse Myoblasts): 113.5%

Compound: MMAGVIRGVLVL [compound 7]
- Free Fatty Acid Levels, MEAN %ISO (3T3-L1 Mouse Adipocytes): 66.4%
- Glucose Utilization (glucose concentration in medium), Percent of Untreated Control (C2C12 Mouse Myoblasts): 128.3%

Compound: MRQWILHNGGMSFFC [compound 12]
- Free Fatty Acid Levels, MEAN %ISO (3T3-L1 Mouse Adipocytes): 67.1%
- Glucose Utilization (glucose concentration in medium), Percent of Untreated Control (C2C12 Mouse Myoblasts): 113.6%

Compound: MRRRMFSCYLY [compound 17]
- Free Fatty Acid Levels, MEAN %ISO (3T3-L1 Mouse Adipocytes): 46.1%
- Glucose Utilization (glucose concentration in medium), Percent of Untreated Control (C2C12 Mouse Myoblasts): 121.7%

Compound: RQWILHNGGMSFFC [compound 13]
- Free Fatty Acid Levels, MEAN %ISO (3T3-L1 Mouse Adipocytes): 74.0%
- Glucose Utilization (glucose concentration in medium), Percent of Untreated Control (C2C12 Mouse Myoblasts): 115.0%

Compound: RRRMFSCYLY [compound 18]
- Free Fatty Acid Levels, MEAN %ISO (3T3-L1 Mouse Adipocytes): 58.5%
- Glucose Utilization (glucose concentration in medium), Percent of Untreated Control (C2C12 Mouse Myoblasts): 124.0%

Source: patent US20240034753A1, “THERAPEUTIC PEPTIDES” (COHBAR, INC., priority 2020, published 2024)
